The values below come from US10442793B2, “Oxa spiro derivative, preparation method therefor, and applications thereof in medicines” (Jiangsu Hengrui Medicine Co., Ltd., priority 2015, dated 2019).

Common to all, as to assay type: cell-based
Experiment [1] has as its target T1, μ-opioid receptors (MOR) (Homo sapiens, UniProt P35372).
T1 construct: host or cells: HEK293
The experiment is described as follows: MOR activity test: HEK293/MOR/CRE luciferase reporter, agonizing MOR and affecting downstream cAMP levels. The conditions noted are these: for Emax: HEK293, maximum effect of TRV-130 is 100%, read-out: Emax on agonizing MOR receptor and affecting cAMP levels. From the text: The compounds of the present invention can activate μ-opioid receptors (MOR). Activated MOR can regulate intracellular cAMP levels, and cAMP enters the nucleus and binds to the CRE region of the reporter gene luciferase, thereby initiating the expression of the reporter gene. Luciferase can react with its substrate to emit fluorescence, and the measured fluorescence signals reflect the agonistic activity of the compounds.
The activity of the test example compounds on agonizing MOR and affecting downstream cAMP levels was tested by the following method.
MOR/pcDNA3.1 (+) and CRE/pGL4.29 were transferred into HEK293 cells. G418 and hygromycin were added into the culture medium, and HEK293/MOR/CRE monoclonal cell lines were screened in a 96-well cell culture plate.
HEK293/MOR/CRE monoclonal cells were cultured in a DMEM/high glucose medium (10% FBS, 1 mg/ml G418, 200 μg/ml hygromycin, mixed uniformly), and passaged every 3 days. On the day of the experiment, a cell suspension was prepared with a fresh cell medium, added to a 96 well plate (BD, #356692) with 20,000 cells/well, and incubated in 5% CO2 at 37° C. On the second day, the compound was dissolved in pure DMSO at a concentration of 20 mM, then formulated with DMSO to a first concentration of 4 mM and diluted in 10 fold concentration gradient to 6 concentrations. Then, 90 μl of DMSO was added to blank and control wells. Then, formulated compound was prepared by adding 2.5 μl of the compound solutions formulated in DMSO at a gradient concentration to 97.5 μl of a fresh cell culture medium containing 5 μM foscolin. Then, 10 μl of the formulated compound was added to the cell culture plate to make the final concentration of the compound 10000, 1000, 100, 10, 1, 0.1, or 0.01 nM, and the plate was incubated at 37° C., in 5% CO2 for 5 hours. In a 96-well cell culture plate, 100 μl of luciferase assay solution (Promega, # E6110) was added to each well. The plate was placed in the dark at room temperature for 10-15 minutes, blowed and aspirated 10 times, and 100 μl were pipetted to a 96 well white plate. The chemiluminescence signal values were read in a microplate reader (PE, Victor3), and the read data was processed using software.
The activity of the compounds of the present invention on agonizing MOR and affecting downstream cAMP levels was determined by the above test, and the EC50 values are shown in Table 1.1.

Experiment [2] has as its target T2, KOR receptor (Homo sapiens, UniProt P41145).
T2 construct: expressed in transfected cells; host or cells: HEK293
The experiment is described as follows: KOR activity test: HEK293/KOR/CRE luciferase reporter, cAMP levels. The conditions noted are these: for Emax: HEK293, maximum effect of morphine is 100%. The procedure:
(§1) The experiment objective is to determine the activity of the compounds of the present invention on agonizing KOR receptor and DOR receptor, and affecting downstream cAMP levels.
(§2) 90 μl of HEK293/KOR/CRE or HEK293/DOR/CRE (CRE cDNA purchased from Promega, product number E8471, KOR cDNA and DOR cDNA were constructed by our company) cells were inoculated in a 96-well plate with a density of 1×10^4 cells/well. Then, the cells were incubated overnight at 37° C., in 5% CO2. The drug was prepared as a 20 mM stock solution that was later diluted with 100% DMSO to a 200×concentration gradient, and then diluted with a 20-fold DMEM/high glucose (SH30243.01B, Hyclone) medium. The cell culture plate inoculated on the first day was taken out, and […] of the diluted drug or control (0.5% DMSO) was added to each well. The plate was gently shaken and placed in a incubator at 37° C., 5% CO2 for 4 hours. Finally, 100 μl of a detection reagent ONE-Glo (E6120, Promega) was added to each well, and the plate was placed at room temperature for 5 minutes. The absorbance value was measured by the cold light model of a microplate reader (PE, Victor3). The EC50 value of the compound was calculated by Graphpad Prism software according to each concentration of the compound and the corresponding signal value. Emax is the maximum effect of the compound on cAMP level changes.
(§3) The activity of the compounds of the present invention on agonizing KOR receptor or DOR receptor and affecting downstream cAMP levels was determined by the above test, and the EC50 values are shown in Table 1.2.

Experiment [3] has as its target T3, DOR receptor (Homo sapiens, UniProt P41143).
T3 construct: expressed in transfected cells; host or cells: HEK293
Kind of experiment: DOR activity test: HEK293/DOR/CRE luciferase reporter, cAMP levels. The conditions noted are these: for Emax: HEK293, maximum effect of morphine is 100%. The procedure:
as §1, §2, §3

Experiment [4] deals with T4, MOR receptor (Homo sapiens, UniProt P35372).
T4 construct: host or cells: CHO-K1
T4 sequence (P35372 whole entry): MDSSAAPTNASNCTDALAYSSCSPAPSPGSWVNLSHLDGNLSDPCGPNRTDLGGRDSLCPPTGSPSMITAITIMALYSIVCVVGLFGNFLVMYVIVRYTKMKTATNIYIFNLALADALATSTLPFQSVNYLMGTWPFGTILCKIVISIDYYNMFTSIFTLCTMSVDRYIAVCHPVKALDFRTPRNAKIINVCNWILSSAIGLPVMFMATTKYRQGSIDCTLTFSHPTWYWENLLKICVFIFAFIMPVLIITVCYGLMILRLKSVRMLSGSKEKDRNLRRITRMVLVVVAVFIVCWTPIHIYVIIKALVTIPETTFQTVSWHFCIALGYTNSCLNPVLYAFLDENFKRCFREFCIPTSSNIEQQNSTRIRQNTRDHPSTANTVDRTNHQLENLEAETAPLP
The experiment is described as follows: Activation of the β-arrestin signaling pathway of MOR receptor (CHO-K1 OPRM1 β-Arrestin cells, DiscoveRX). The conditions noted are these: for Emax: maximum effect of morphine is 100%. The procedure:
The experiment objective is to determine the activity of the compounds of the present invention on activating the β-arrestin signaling pathway of MOR receptor.
The drug was prepared as a 20 mM stock solution that was later diluted with 100% DMSO to a 200×concentration gradient, and then diluted with a 20-fold AssayComplete™ Cell Plating 2 Reagent (93-0563R2B, DiscoveRX) medium. The cell culture plate inoculated on the first day was taken out, and 10 μl of the diluted drug or control (0.5% DMSO) was added to each well. The plate was gently shaken and placed in an incubator at 37° C., 5% CO2 for 90 minutes. Finally, 50 μL of a detection reagent (93-0001, DiscoveRX) were added to each well, and the plate was placed at room temperature for 60 minutes. The absorbance values were measured by the cold light model of a microplate reader (PE, Victor3). The EC50 values of the compounds were calculated by Graphpad Prism software according to each concentration of the compound and the corresponding signal value.

Experiment [5] deals with T5, hERG potassium channel (Homo sapiens, UniProt Q12809).
T5 construct: expressed in transfected cells; host or cells: HEK293
T5 sequence (Q12809 whole entry): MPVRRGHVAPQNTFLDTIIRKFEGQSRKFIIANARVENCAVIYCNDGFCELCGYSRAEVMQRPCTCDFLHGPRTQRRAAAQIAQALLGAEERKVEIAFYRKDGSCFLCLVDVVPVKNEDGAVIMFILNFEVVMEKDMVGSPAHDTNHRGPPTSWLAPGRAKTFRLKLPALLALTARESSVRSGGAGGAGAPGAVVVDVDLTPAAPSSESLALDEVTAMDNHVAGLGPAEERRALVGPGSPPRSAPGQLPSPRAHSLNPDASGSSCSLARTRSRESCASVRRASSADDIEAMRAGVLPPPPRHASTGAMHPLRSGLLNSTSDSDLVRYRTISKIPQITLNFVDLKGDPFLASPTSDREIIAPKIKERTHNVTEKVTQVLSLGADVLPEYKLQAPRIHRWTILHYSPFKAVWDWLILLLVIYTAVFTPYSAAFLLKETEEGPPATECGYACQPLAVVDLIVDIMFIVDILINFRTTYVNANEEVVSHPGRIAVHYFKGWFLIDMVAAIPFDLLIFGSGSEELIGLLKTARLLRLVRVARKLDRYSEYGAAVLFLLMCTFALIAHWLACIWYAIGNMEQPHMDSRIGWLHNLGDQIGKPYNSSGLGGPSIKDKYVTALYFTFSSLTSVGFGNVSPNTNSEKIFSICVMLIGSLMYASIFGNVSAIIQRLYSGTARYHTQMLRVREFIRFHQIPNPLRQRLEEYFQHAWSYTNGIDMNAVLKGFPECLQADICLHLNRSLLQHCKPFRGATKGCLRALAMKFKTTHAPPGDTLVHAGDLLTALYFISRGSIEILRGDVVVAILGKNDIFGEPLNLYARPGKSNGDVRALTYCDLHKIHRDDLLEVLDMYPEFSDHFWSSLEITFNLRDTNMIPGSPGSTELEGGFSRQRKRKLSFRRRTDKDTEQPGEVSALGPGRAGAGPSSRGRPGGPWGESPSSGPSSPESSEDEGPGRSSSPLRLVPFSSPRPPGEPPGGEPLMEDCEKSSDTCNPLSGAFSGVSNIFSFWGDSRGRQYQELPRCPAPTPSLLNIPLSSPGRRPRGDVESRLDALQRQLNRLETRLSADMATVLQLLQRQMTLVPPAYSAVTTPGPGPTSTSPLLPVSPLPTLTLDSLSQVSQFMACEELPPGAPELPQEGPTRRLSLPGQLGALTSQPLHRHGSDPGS
Kind of experiment: Blocking of hERG potassium current, automatic patch clamp on HEK293-hERG cells. The procedure: The blocking effect of the compounds of the present invention and the positive compound TRV-130 (Journal of Pharmacology and Experimental Therapeutics, Volume 344, Issue 3, Pages 708-717, 2013) on hERG potassium current was tested on a stable cell line transfected with hERG potassium channel using an automatic patch clamp.
HEK293-hERG stabilized cells were subcultured at a density of 1:4 in a MEM/EBSS medium (10% FBS, 400 μg/ml G418, 1% MEM nonessential amino acid solution (100×), 1% sodium pyruvate solution) for 48-72 hours, then the automatic patch clamp experiment was performed. The cells were digested with 0.25% trypsin on the day of the experiment, then the cells were collected by centrifugation and resuspended with extracellular fluid (140 mM NaCl, 4 mM KCl, 1 mM MgCl2, 2 mM CaCl2, 5 mM D-glucose monohydrate, 10 mM Hepes, pH 7.4, 298 mOsmol) into a cell suspension. The cell suspension was placed on the cell bank of the Patchliner instrument, and the cells were added to the chip (NPC-16) by the negative pressure controller of the Patchliner instrument, with negative pressure attracting individual cells to the small hole of the chip. After the whole cell model was formed, the instrument generated the hERG current according to the preset hERG current and voltage program, and then the instrument perfused the compound from low concentration to high concentration automatically. HEAK Patchmaster, HEAK EPC10 patch clamp amplifier (Nanion), Pathliner software, and a data analysis software provided by Pathcontrol HTsoftware were used to analyze the current of the compounds at different concentrations and the current of the blank control.
The blocking effect of the compounds of the present invention on hERG potassium current was determined by the above test, and the IC50 values are shown in Table 3.

T2 sequence (P41145 whole entry): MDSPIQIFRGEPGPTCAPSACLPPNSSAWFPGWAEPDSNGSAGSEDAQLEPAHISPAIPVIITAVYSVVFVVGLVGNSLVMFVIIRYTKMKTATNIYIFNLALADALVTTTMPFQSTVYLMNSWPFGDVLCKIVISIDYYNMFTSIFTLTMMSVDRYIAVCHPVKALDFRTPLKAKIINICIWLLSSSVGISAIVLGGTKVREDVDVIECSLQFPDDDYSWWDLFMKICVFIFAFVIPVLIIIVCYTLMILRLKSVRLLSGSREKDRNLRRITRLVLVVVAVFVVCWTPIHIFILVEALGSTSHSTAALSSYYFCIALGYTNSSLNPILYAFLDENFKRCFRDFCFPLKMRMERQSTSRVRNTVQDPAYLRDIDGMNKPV
T3 sequence (P41143 whole entry): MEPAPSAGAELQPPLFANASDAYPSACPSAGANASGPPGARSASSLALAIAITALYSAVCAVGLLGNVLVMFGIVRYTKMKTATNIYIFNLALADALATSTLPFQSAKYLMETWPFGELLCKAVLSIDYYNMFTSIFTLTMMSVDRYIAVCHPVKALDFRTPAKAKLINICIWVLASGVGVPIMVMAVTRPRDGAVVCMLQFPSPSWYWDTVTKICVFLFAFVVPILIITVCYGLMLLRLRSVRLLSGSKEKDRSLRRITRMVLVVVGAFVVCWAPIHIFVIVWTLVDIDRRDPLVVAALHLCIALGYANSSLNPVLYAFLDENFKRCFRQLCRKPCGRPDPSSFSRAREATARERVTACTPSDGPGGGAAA
T1 sequence (P35372 whole entry): as the sequence (P35372 whole entry) above

In the case of `CCO[C@H]1CC[C@H](NCC[C@@]2(c3ccccn3)CCOC3(CCCC3)C2)c2ccccc21` [Example 19, (1S,4S)-4-ethoxy-N-(2-((R)-9-(pyridin-2-yl)-6-oxaspiro[4.5]decan-9-yl)ethyl)-1,2,3,4-tetrahydronaphthalen-1-amine], the concentration giving a half-maximal response (EC50) in experiment [1] stood at 2 nM; in experiment [2] it was 862 nM; in experiment [3], 552 nM; in experiment [4], 24 nM. Besides, the Emax in experiment [1] was 98%; in experiment [2], 96%; in experiment [3] it was 108%; in experiment [4] it was 13%. The compound further showed an IC50 in experiment [5] of 5900 nM.

Regarding `COC[C@H]1CC[C@H](NCC[C@@]2(c3ccccn3)CCOC3(CCCC3)C2)c2ccccc21` [Example 22, (1S,4S)-4-(methoxymethyl)-N-(2-((R)-9-(pyridin-2-yl)-6-oxaspiro[4.5]decan-9-yl)ethyl)-1,2,3,4-tetrahydronaphthalen-1-amine], the half-maximal effective concentration (EC50) in experiment [1] worked out at 4 nM; in experiment [2], 3090 nM; in experiment [3], 2400 nM; in experiment [4], 41 nM. Moreover, the Emax in experiment [1] came to 103%; in experiment [2] it was 97%; in experiment [3], 102%; in experiment [4], 18%. This compound displayed an IC50 in experiment [5] of 3800 nM.
